Data as given in patent US20170274014A1, “COMBINATIONS OF LOW, IMMUNE ENHANCING, DOSES OF MTOR INHIBITORS AND CARS” (Novartis AG, priority 2014, published 2017).

System: NALM6-luc tumors
Assay: Growth of NALM6-luc tumors in NSG mice
Type: in vivo
Conditions: daily oral dosing of RAD001 alone

With `CO[C@H]1C[C@@H]2CC[C@@H](C)[C@@](O)(O2)C(=O)C(=O)N2CCCC[C@H]2C(=O)O[C@H]([C@H](C)C[C@@H]2CC[C@@H](OCCO)[C@H](OC)C2)CC(=O)[C@H](C)/C=C(\C)[C@@H](O)[C@@H](OC)C(=O)[C@H](C)C[C@H](C)/C=C/C=C/C=C/1C` [RAD001, (1R,9S,12S,15R,16E,18R,19R,21R,23S,24E,26E,28E,30S,32S,35R)-1,18-dihydroxy-12-{(1R)-2-[(1S,3R,4R)-4-(2-hydroxyethoxy)-3-methoxycyclohexyl]-1-methylethyl}-19,30-dimethoxy-15,17,21,23,29,35-hexamethyl-11,36-dioxa-4-aza-tricyclo[30.3.1.04,9]hexatriaconta-16,24,26,28-tetraene-2,3,10,14,20-pentaone] the “Impact on the growth of NALM6-luc tumors” value was “did not have an impact”.
